{
  "source": "patent US10711041B2",
  "about": "“Lyophilisate containing a cyclic peptide of formula X1-[sequence]-X2” (priority 2013, dated 2020)",
  "test": "Aerosol droplet size characterisation (laser diffraction / impactor)",
  "assay_type": "physicochemical",
  "description": "By means of a nebulizer which converts aqueous solution into an aerosol, also the aqueous solutions of the cyclic peptides of amino acid sequence SEQ ID NO:1 to SEQ ID NO:6 may be converted into aerosols. Such aerosols can be characterized with respect to the medium droplet size, as well as to size distribution of the aerosol droplets. For that conventional methods are used, which are described also in pharmacopoeias. The one analytical method uses the cascade impactor in its actual construction, the “Next Generation Impactor”. Thereby the aerosol is conducted through a series of sieve plates, whereby the diameter of the holes is diminished with each plate and the amount of the holes is increased. In the other analytical method, the laser-diffraction measurement, the droplet sizes are determined by means of laser. The 2 important parameters which are determined during these measurements, one the one hand is the median of the diameter of all droplets, and on the other hand, the amount of droplets having a diameter of ≤5 μm. In the literature that diameter is described as a limit, under which inhaled aerosol particles arrive in fact in the lung.\nIt is ramblingly known, that in practice from a generated aerosol only a part is available for the patient. Thus, for determining the amount of aerosol which is available for a user, trials with a breathing simulator were carried out. For investigating the particle size and for the implementation of the breathing simulation an aerosol from an aqueous solution of the cyclic peptide of amino acid sequence SEQ ID NO:1 was used. For generating aerosol different nebulizer types were used. The nebulizers A and B were so called “Mesh-Type nebulizers”.",
  "data": [
    {"molecule": "C[C@@H]1NC(=O)CNC(=O)[C@H](CCC(=O)O)NC(=O)[C@@H]2CCCN2C(=O)[C@H]([C@@H](C)O)NC(=O)[C@H](CCC(=O)O)NC(=O)[C@H](CCCNC(=N)N)NC(=O)[C@H](CCC(N)=O)NC(=O)CNC(=O)[C@@H](N)CSSC[C@@H](C(=O)O)NC(=O)[C@H](Cc2ccc(O)cc2)NC(=O)[C@H](Cc2c[nH]c3ccccc23)NC(=O)[C@@H]2CCCN2C(=O)[C@H](CCCCN)NC(=O)[C@H](C)NC(=O)[C@H](CCC(=O)O)NC1=O", "note": "[SEQ ID NO: 1]", "values": [
      {"measurement": "amount of droplets with a diameter of ≤5 μm in the aerosol", "setting": "all nebulizers", "value": "at least 50%"},
      {"measurement": "Amount of particles with Ø ≤5 μm", "setting": "nebulizer Type A", "value": 50, "unit": "%"},
      {"measurement": "Median particle diameter of aerosol", "setting": "nebulizer Type A", "value": 4.7, "unit": "μm"},
      {"measurement": "Amount of particles with Ø ≤5 μm", "setting": "nebulizer Type B", "value": 70, "unit": "%"},
      {"measurement": "Median particle diameter of aerosol", "setting": "nebulizer Type B", "value": 3.3, "unit": "μm"},
      {"measurement": "Amount of particles with Ø ≤5 μm", "setting": "nebulizer Type C", "value": 65, "unit": "%"},
      {"measurement": "Median particle diameter of aerosol", "setting": "nebulizer Type C", "value": 3.7, "unit": "μm"}
    ]}
  ]
}
